Laboratory results as given in patent publication US20170283458A1, “COLLAGEN-BINDING SYNTHETIC PEPTIDOGLYCANS FOR WOUND HEALING” (Symic Biomedical, Inc., priority 2009, published 2017).
Ends that are not written are not given here.

Experiments:
Human dermal fibroblasts = assay: TGF-β1 production by human dermal fibroblasts (ELISA); assay type: cell-based; conditions: 1.4 μM treatment, 48 hours
Description: Human dermal fibroblasts (Cascade Biologics) were seeded onto 96-well tissue culture polystyrene plates at a seeding density of 1.83×10^3 cells/well. Cells adhered overnight and cell medium was aspirated. 100 μL/well of cell medium containing a final concentration of 1.4 μM treatment delivered from a concentrated solution of treatment in 1×PBS was added to the cells. After 48 hours, cell medium was removed and frozen at −80 C until further testing. TGF-β1 was measured by ELISA using a kit and protocol from R&D Systems.

Long-Evans rats = assay: Rat incisional model, tensile testing of scar (scar strength); assay type: in vivo
Description: Using sterile techniques, longitudinal wounds were incised on shaved dorsal skin of the rats. A 4 cm incision was cut through the panniculus down to the skeletal musculature, and a 250 μL single dose of either 10 mg/mL hyaluronic acid (HA) or HA+DS-SILY was applied to the open wound by a syringe. DS-SILY was tested at 0.5, 1, and 2.5 mg/mL mixed with HA. The incision was then sutured closed and animals were returned to individual cages and monitored for complications. Negative control rats received no treatment and were treated identically. A pilot study was performed (n=3) at time points 3, 7, 10, 14, and 21 days, followed by a higher powered study (n=9) for 21 and 28 day time points.
At a predetermined time after surgery (3-28 days) the animals were euthanized. Photographs of the incision were obtained, and the dermal wound including a 1 inch area around the wound edge was excised and cut into 4mm wide strips using a custom cutting device with fixed blades. Relevant tissues were harvested for tensile strength testing and histologic study.
Based on these findings, a full powered (n=9 rats/treatment) was performed using the later time points 21-day and 28-day, and comparing the same low dose, but modifying the high dose to 0.25 mg DS-SILY. DS-SILY was delivered with HA in each study and the negative control received no treatment.
Following necropsy, 4 mm skin strips (n=4 per animal) were placed in 1×PBS and kept at 4° C. for up to 6 hours. The wound breaking strength was measured at time points from 3 to 21 days. Skin samples were loaded onto a mechanical testing system (Test Resources, mode:100P/Q) such that the incision was orthogonal to the grips. Samples were loaded under tension with a rate of 5 mm/min to failure. […] No differences were observed between the low and high peptidoglycan concentrations.

DS-SILY: collagen-binding peptidoglycan in which a single SILY peptide was conjugated to dermatan sulfate via PDPH (RRANAALKAGELYKSILYGC; also: single peptide conjugated to dermatan sulfate via PDPH, site not given here)
TGF-β1 in cell medium (Human dermal fibroblasts): significantly decreased TGF-β1 | wound breaking strength (Long-Evans rats; 21 days post-injury, vs untreated or HA treated wounds): significant increase in wound breaking strength when compared to untreated or HA treated wounds | scar strength (Long-Evans rats; full powered study, 0.125 mg and 0.25 mg with HA, 21-days): increased scar strength over no treatment | scar strength (Long-Evans rats; full powered study, 0.125 mg and 0.25 mg with HA, 28-days): significantly higher compared to the HA control, but was not different from no treatment | scar strength (Long-Evans rats; pilot study, low (0.125 mg) and high (0.625 mg) dose delivered with HA, 21-days): significantly increases scar strength
